The values below come from US20240067651A1 (Biohaven Therapeutics Ltd., priority 2019, published 2024).

The nature of data set [1]: Stability in Simulated Intestinal Fluid (SIF). Set-up: key: % parent compound remaining relative to 0-minute sample. The data set is classed as in vitro ADME. How it is done: (§1) Simulated gastric fluid (SGF) and Simulated intestinal fluid (SIF) stability are in vitro metrics indicating the ability of a compound to pass through the gastrointestinal tract […] or completely digested. An undigested or nearly undigested compound will usually survive gut transit long enough to be absorbed into the systemic circulation. Greater than 50% remaining intact compound at 1 hour indicates a relatively stable molecule that will likely be absorbed in the gut.
(§2) For each test compound, samples at a final concentration of 2 μg/mL are prepared in respective blank simulated gastric fluid with pepsin (pH 1.2) and simulated intestinal fluid with pancreatin (pH 6.8). All samples are incubated at 37° C. on a 150-rpm orbital shaker, and an aliquot is removed at predetermined time points (0 to 60 minutes). Samples are precipitated with three volumes of acetonitrile containing propranolol as internal standard, and centrifuged for 10 min at 2,000 g before LC-MS/MS analysis of the supernatant solutions. Percent parent compound remaining is determined relative to 0-minute incubation samples. If a sufficient number of time points are available, the degradation half-life is calculated based on the natural log of % compound remaining vs. time plot.

Data set [2] in a line: Plasma Stability. The data set is classed as in vitro ADME, human. How it is done: Plasma stability estimates the ability of a compound to remain intact in the blood. For prodrugs that are intended to be hydrolyzed by plasma enzymes a certain level of instability in plasma indicates the compound is probably breaking down to the parent drug. A stability range of 25-75% remaining parent compound after 1 hour in plasma indicates the compound is likely breaking down to the parent drug molecule and a patient will be exposed to this parent molecule.
Assessment of plasma stability was carried out by individual incubations of drug candidates in fresh human plasma at a concentration of 1 μM for 1 hour at 37° C. After which, the samples were de-proteinized by addition of 2 volumes of acetonitrile containing 0.1% formic acid and internal standard, vortex mixed for 2 minutes and centrifuged at 4,000 rpm for 10 minutes to pellet precipitated protein. The resulting supernatant containing the drug candidates was diluted 5-fold with water containing 0.1% formic acid and submitted to LCMS/MS analysis. All determinations were done in triplicate. Plasma stability was expressed as percent of control remaining.
See Pelletier et al. ACS Med. Chem. Lett. 2018, 9, 752-756.

Data set [3] can be described thus: Stability in Simulated Gastric Fluid (SGF). Format: in vitro ADME. Set-up: key: % parent compound remaining relative to 0-minute sample. How it is done: as §1, §2
The mark [4] stands for this setting: % remaining at 1 h, SIF with pancreatin pH 6.8, 2 μg/mL, 37° C.
[5] abbreviates: % remaining at 1 h, human plasma, 1 μM, 37° C.
[6] abbreviates: % remaining at 1 h, SGF with pepsin pH 1.2, 2 μg/mL, 37° C.
The mark [7] stands for this setting: % remaining at 1 h in simulated intestinal fluid, the 15th table.
[8] abbreviates: % remaining at 1 h in human plasma, the 15th table.
[9] abbreviates: % remaining at 1 h in simulated gastric fluid, the 15th table.
[10] abbreviates: simulated intestinal fluid, remaining at 1 h.
The mark [11] stands for this setting: simulated gastric fluid, remaining at 1 h.

Regarding `CC(C)C[C@@H](N)C(=O)OCn1ccc2c1c(=O)[nH]c(=S)n2CCOC(C)C.O=C(O)C(F)(F)F` [Example 324, trifluoroacetic acid {4-oxo-1-[2-(propan-2-yloxy)ethyl]-2-sulfanylidene-1H,2H,3H,4H,5H-pyrrolo[3,2-d]pyrimidin-5-yl}methyl (2R)-2-amino-4-methylpentanoate], the SIF in data set [1] (% remaining @ 1 h) is listed as 24%@ 1 h. In data set [2] (% remaining @ 1 h), the “human Plasma stability” value amounted to 1%@ 1 h. For the same molecule, in data set [3] (% remaining @ 1 h), the SGF is on record as 98%@ 1 h.
As to `CC(C)OCCn1c2nc(=O)c3c1ccn3COC(=O)CCC(=O)N1CCC(CC1)C(=O)OCS2` [Example 138, 25-[2-(propan-2-yloxy)ethyl]-3,15-dioxa-5-thia-7,13,20,25-tetraazatetra-cyclo[18.2.2.1^{6,10}.0^{9,13}]penta-cosa-6,9,11-triene-2,8,16,19-tetrone], the SIF in data set [1] (setting [4]) is 98% remaining. The “human Plasma stability” value in data set [2] (setting [5]) worked out at 66% remaining. The SGF in data set [3] (setting [6]) is on record as 100% remaining.
Take `CCOC(=O)OCSc1nc(=O)c2c(ccn2CSc2nc(=O)c3[nH]ccc3n2CCOC(C)C)n1CCOC(C)C` [Example 202]: the SIF in data set [1] (setting [7]) is 52% remaining. In addition, in data set [2] (setting [8]), the “human Plasma stability” value was determined as 3% remaining. Moreover, the SGF in data set [3] (setting [9]) is on record as 45% remaining.
For the molecule “butoxy)carbonyl]amino}ethoxy)eth-yl](methyl)carbamoyl}oxy)methyl]sul-fanyl}-4-oxo-1-[2-(propan-2-yloxy)ethyl]-1H,4H,5H-pyrrolo[3,2-d]pyrimidin-5-yl)methoxy]carbonyl}(methyl)ami-no)ethoxy]ethyl}carbamate [Example 381]”, the SIF in data set [1] (setting [10]) was 97% remaining. For the same molecule, the “human Plasma stability” value in data set [2] (human plasma, remaining at 1 h) amounted to 97% remaining. In data set [3] (setting [11]), the SGF is on record as 82% remaining.
For `Cc1ccccc1N(C)C(=O)OCn1ccc2c1c(=O)[nH]c(=S)n2CCOC(C)C` [Example 251], in data set [1] (simulated intestinal fluid, at 1 h), the SIF was 100% remaining. The “human Plasma stability” value in data set [2] (human plasma, at 1 h) is 96% remaining. For the same molecule, the SGF in data set [3] (simulated gastric fluid, at 1 h) is reported as 99% remaining.
In the case of `Cc1ccccc1S(=O)(=O)n1ccc2c1c(=O)[nH]c(=S)n2CCOC(C)C` [Example 80, 5-(2-methylbenzenesulfonyl)-1-[2-(propan-2-yloxy)ethyl]-2-sulfanylidene-1H,2H,3H,4H,5H-pyrrolo[3,2-d]pyrimidin-4-one], in data set [1] (setting [4]), the SIF is recorded as 87%. In addition, the “human Plasma stability” value in data set [2] (setting [5]) was 99%. Moreover, the SGF in data set [3] (setting [6]) is 90%.
For `Cc1ccc(S(=O)(=O)n2ccc3c2c(=O)[nH]c(=S)n3CCOC(C)C)cc1C` [Example 75, 5-(3,4-Dimethylbenzenesulfonyl)-1-[2-(propan-2-yloxy)ethyl]-2-sulfanyl-1H,4H,5H-pyrrolo[3,2-d]pyrimidin-4-one] the same measures were 91%, 100% and 99%.
For `CC(C)OCCn1c(=S)[nH]c(=O)c2c1ccn2S(C)(=O)=O` [Example 76, 5-methanesulfonyl-1-[2-(propan-2-yloxy)ethyl]-2-sulfanylidene-1H,2H,3H,4H,5H-pyrrolo[3,2-d]pyrimidin-4-one] the same measures were 91%, 98% and 96%.
As for `CCCCCCCOC(=O)OCSc1nc(=O)c2c(ccn2COC(=O)OCCCCCCC)n1CCOC(C)C` [Example 220], the SIF in data set [1] (% remaining at 1 h in simulated intestinal fluid, the 17th table) was 5% remaining. Besides, in data set [2] (% remaining at 1 h in human plasma, the 17th table), the “human Plasma stability” value amounted to 55% remaining. For the same molecule, in data set [3] (% remaining at 1 h in simulated gastric fluid, the 17th table), the SGF is recorded as 77% remaining.
On to `CC(C)OCCn1c(SCOC(=O)[C@@H](N)Cc2ccccc2)nc(=O)c2[nH]ccc21.O=C(O)C(F)(F)F` [Example 310, trifluoroacetic acid ({4-oxo-1-[2-(propan-2-yloxy)ethyl]-1H,4H,5H-pyrrolo[3,2-d]pyrimidin-2-yl}sulfanyl)methyl (2S)-2-amino-3-phenylpropanoate], for which the SIF in data set [1] (% remaining @ 1 h) is reported as 32% @ 1 h. In addition, in data set [2] (% remaining @ 1 h), the “human Plasma stability” value stood at 4% @ 1 h. Further, the SGF in data set [3] (% remaining @ 1 h) is reported as 99% @ 1 h.
For the molecule `CC(C)OCCn1c(=S)n(COC(=O)C2CCNCC2)c(=O)c2c1ccn2COC(=O)CCC(=O)O.O=C(O)C(F)(F)F` [Example 139, 4-oxo-4-({4-oxo-3-[(piperidine-4-carbonyloxy)methyl]-1-[2-(propan-2-yloxy)ethyl]-2-sulfanylidene-1H,2H,3H,4H,5H-pyrrolo[3,2-d]pyrimidin-5-yl}methoxy)butanoic acid; trifluoroacetic acid], the SIF in data set [1] (setting [4]) was 98% remaining. In addition, the “human Plasma stability” value in data set [2] (setting [5]) is recorded as 8% remaining. Besides, the SGF in data set [3] (setting [6]) is 99% remaining.
For “(2R)-2-{[(tert-butoxy)carbonyl]amino}-3-methyl-N-{2-[2-(2-{[{{4-oxo-1-[2-(propan-2-yloxy)ethyl]-2-sulfanylidene-1H,2H,3H,4H,5H-pyrrolo[3,2-d]pyrimidin-5-yl}methoxy)carbonyl]oxy}ethoxy)eth-oxy]ethyl}butanamide [Example 377]”, in data set [1] (simulated intestinal fluid, bare number, unit or time not given), the SIF is 11. For the same molecule, in data set [2] (human plasma, remaining at 1 h), the “human Plasma stability” value worked out at 8% remaining. In data set [3] (simulated gastric fluid, bare number, unit or time not given), the SGF is listed as 83.
On to `COc1ccc(CSc2nc(=O)c3[nH]ccc3n2CCOC(C)C)cc1` [Example 74, 2-{[(4-Methoxyphenyl)methyl]sulfanyl}-1-[2-(propan-2-yloxy)ethyl]-1H,4H,5H-pyrrolo[3,2-d]pyrimidin-4-one], for which the SIF in data set [1] (setting [4]) was 97%. The “human Plasma stability” value in data set [2] (setting [5]) turned out to be 97%. The SGF in data set [3] (setting [6]) is recorded as 37%.
`CC(C)OCCn1c(=S)n2c(=O)c3c1ccn3COC(=O)CCC(=O)N1CCC(CC1)C(=O)OC2` [Example 140, 19-[2-(propan-2-yloxy)ethyl]-20-sulfanylidene-3,13-dioxa-1,8,15,19-tetraazatetra-cyclo[13.5.2.2^{5,8}.0^{18,22}]tetra-cosa-16,18(22)-diene-4,9,12,21-tetrone]: in data set [1] (setting [4]), the SIF is on record as 79% remaining. The “human Plasma stability” value in data set [2] (setting [5]) stood at 10% remaining. For the same molecule, the SGF in data set [3] (setting [6]) is reported as 99% remaining.
As to `CC(C)OCCn1c(SCOC(=O)N(C)CCOCCN)nc(=O)c2[nH]ccc21.O=C(O)C(F)(F)F` [Example 380, trifluoroacetic acid ({4-oxo-1-[2-(propan-2-yloxy)ethyl]-1H,4H,5H-pyrrolo[3,2-d]pyrimidin-2-yl}sulfanyl) methyl N-[2-(2-aminoethoxy)ethyl]-N-methylcarbamate], the SIF in data set [1] (setting [10]) is given as 99% remaining. The “human Plasma stability” value in data set [2] (human plasma, remaining at 1 h) was found to be 85% remaining. Further, the SGF in data set [3] (setting [11]) is 100% remaining.
Regarding `CCOC(=O)OCSc1nc(=O)c2[nH]ccc2n1CCOC(C)C` [Example 201], the SIF in data set [1] (setting [7]) is recorded as 43% remaining. For the same molecule, the “human Plasma stability” value in data set [2] (setting [8]) came to 0% remaining. In addition, the SGF in data set [3] (setting [9]) is recorded as 100% remaining.
Regarding `CCS(=O)(=O)n1ccc2c1c(=O)[nH]c(=S)n2CCOC(C)C` [Example 77, 5-(ethanesulfonyl)-1-[2-(propan-2-yloxy)ethyl]-2-sulfanylidene-1H,2H,3H,4H,5H-pyrrolo[3,2-d]pyrimidin-4-one], in data set [1] (setting [4]), the SIF is reported as 96%. Moreover, the “human Plasma stability” value in data set [2] (setting [5]) came out at 98%. Also, in data set [3] (setting [6]), the SGF is 99%.
As for “tert-butyl N-(2-{2-[methyl({[{{4-oxo-1-[2-(propan-2-yloxy)ethyl]-1H,4H,5H-pyrrolo[3,2-d]pyrimidin-2-yl}sulfanyl)methoxy]carbonyl})ami-no]ethoxy}ethyl)carbamate [Example 379]”, the SIF in data set [1] (setting [10]) was 69% remaining. The “human Plasma stability” value in data set [2] (human plasma, remaining at 1 h) is on record as 0% remaining. In addition, the SGF in data set [3] (setting [11]) was 93% remaining.
